Reference: ChEMBL document CHEMBL2203033, “Design and synthesis of novel DFG-out RAF/vascular endothelial growth factor receptor 2 (VEGFR2) inhibitors: 3. Evaluation of 5-amino-linked thiazolo[5,4-d]pyrimidine and thiazolo[5,4-b]pyridine derivatives” (Bioorg Med Chem, 2012)
Blank lines part the entries; values can stand above or below the compound they belong to. Active and inactive are the calls of the source. No cut-off for these calls is given here.

Tests used:
[1] = target: Vascular endothelial growth factor receptor 2 (Homo sapiens, UniProt P35968); assay: Inhibition of VEGFR2
Vascular endothelial growth factor receptor 2, sequence (P35968 whole entry): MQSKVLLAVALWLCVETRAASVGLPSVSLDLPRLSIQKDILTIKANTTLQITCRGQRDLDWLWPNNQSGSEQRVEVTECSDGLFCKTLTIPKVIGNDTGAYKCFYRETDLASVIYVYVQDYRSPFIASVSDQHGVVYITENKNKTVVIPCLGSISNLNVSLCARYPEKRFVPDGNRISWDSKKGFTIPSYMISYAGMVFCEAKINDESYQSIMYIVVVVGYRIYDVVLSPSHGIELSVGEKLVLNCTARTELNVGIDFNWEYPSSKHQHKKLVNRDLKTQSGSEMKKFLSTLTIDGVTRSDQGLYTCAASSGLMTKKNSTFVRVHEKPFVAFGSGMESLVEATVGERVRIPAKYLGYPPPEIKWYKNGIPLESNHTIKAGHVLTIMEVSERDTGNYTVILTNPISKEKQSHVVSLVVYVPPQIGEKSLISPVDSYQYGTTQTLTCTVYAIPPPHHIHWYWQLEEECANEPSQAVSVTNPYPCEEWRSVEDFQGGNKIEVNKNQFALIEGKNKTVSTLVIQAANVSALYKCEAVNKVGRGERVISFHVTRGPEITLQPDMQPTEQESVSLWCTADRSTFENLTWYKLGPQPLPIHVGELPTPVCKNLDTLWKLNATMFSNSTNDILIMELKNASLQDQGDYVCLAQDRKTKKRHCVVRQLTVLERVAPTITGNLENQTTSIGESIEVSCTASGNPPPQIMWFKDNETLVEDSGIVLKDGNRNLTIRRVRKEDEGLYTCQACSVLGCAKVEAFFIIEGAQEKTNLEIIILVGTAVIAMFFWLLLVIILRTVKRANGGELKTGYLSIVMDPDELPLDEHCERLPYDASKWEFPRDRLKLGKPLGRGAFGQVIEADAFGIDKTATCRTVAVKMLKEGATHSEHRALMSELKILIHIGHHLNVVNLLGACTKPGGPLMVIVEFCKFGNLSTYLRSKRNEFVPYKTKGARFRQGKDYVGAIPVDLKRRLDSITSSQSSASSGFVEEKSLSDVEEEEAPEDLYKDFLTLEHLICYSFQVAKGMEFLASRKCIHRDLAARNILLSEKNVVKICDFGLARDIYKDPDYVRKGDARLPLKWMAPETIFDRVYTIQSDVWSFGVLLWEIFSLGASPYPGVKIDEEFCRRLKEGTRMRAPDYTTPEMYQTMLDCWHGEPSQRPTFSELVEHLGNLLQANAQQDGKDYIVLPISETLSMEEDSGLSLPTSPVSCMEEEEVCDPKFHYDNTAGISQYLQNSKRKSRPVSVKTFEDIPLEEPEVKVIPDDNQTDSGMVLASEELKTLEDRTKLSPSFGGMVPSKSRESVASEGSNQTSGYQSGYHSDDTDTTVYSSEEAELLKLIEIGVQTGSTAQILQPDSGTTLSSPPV

[2] = target: T1, Serine/threonine-protein kinase B-raf (Homo sapiens, UniProt P15056, V600E); assay: Inhibition of recombinant BRAF V600E mutant using […] and [gamma-32P]ATP as substrate after 30 mins by scintillation counting
T1 sequence (P15056 2-766 V600E limits assumed): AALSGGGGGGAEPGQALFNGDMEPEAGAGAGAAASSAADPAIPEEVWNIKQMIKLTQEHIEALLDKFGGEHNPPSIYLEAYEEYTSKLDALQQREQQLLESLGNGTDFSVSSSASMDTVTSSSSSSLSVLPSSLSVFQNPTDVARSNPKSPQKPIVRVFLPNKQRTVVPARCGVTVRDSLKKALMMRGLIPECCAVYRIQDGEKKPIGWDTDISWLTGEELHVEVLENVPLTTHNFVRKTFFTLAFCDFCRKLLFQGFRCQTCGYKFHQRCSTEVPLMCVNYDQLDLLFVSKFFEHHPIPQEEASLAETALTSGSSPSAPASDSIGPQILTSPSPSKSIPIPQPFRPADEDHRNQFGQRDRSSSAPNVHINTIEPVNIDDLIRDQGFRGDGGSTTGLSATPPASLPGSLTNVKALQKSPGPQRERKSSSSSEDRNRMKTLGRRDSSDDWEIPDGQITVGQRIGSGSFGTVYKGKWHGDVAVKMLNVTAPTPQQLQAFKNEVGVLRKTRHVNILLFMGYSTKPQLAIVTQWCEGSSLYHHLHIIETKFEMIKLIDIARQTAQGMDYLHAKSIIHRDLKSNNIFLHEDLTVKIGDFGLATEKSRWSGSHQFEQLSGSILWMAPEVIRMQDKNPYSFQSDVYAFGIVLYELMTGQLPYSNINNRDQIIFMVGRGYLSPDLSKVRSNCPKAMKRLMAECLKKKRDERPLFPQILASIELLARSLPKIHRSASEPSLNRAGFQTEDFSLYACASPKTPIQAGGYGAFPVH

[3] = target: T1, Serine/threonine-protein kinase B-raf; assay: Inhibition of BRAF V600E mutant in human HT-29 cells assessed as reduction of […] phosphorylation; assay type: cell-based
Rattus norvegicus [4] = assay: Inhibition of BRAF in human HT-29 cells xenografted nude rat tumor assessed as reduction of ERK phosphorylation at 25 mg/kg, po; assay type: functional, organism-based; design: dose 25 mg/kg
[5] = Thermodynamic solubility of the compound in Japanese pharmacopoeia 2nd fluid at pH 6.8 presence of 20 mmol/L of bile acid; assay type: physicochemical; settings: read-out: Therm_solubility
[6] = Intrinsic clearance in human liver microsomes at 1 umol/L after 20 mins in presence of NADPH; assay type: ADME, Microsome; settings: read-out: CLH
[7] = Mean residence time in rat at 25 mg/kg, po; assay type: ADME, organism-based; design: dose 25 mg/kg, route oral; settings: in vivo
[8] = Cmax in rat at 25 mg/kg, po; assay type: ADME, organism-based; design: dose 25 mg/kg, route oral; settings: in vivo
HT-29 = assay: Antitumor activity against human HT-29 cells xenografted in nude rat assessed as tumor regression at 25 mg/kg, po qd for 2 weeks; assay type: functional
[9] = Total clearance in rat at 1 mg/kg, iv; assay type: ADME, organism-based; design: dose 1 mg/kg, route intravenous; settings: in vivo
[10] = Mean residence time in rat at 1 mg/kg, iv; assay type: ADME, organism-based; design: dose 1 mg/kg, route intravenous; settings: in vivo
[11] = Volume of distribution at steady state in rat at 1 mg/kg, iv; assay type: ADME, organism-based; design: dose 1 mg/kg, route intravenous; settings: in vivo, read-out: Vdss
[12] = AUC (0 to 24 hrs) in rat at 1 mg/kg, iv; assay type: ADME, organism-based; design: time < 24 hr, dose 1 mg/kg, route intravenous; settings: plasma
[13] = AUC (0 to 24 hrs) in rat at 25 mg/kg, po; assay type: ADME, organism-based; design: time < 24 hr, dose 25 mg/kg, route oral; settings: plasma
Rattus norvegicus [14] = assay: Toxicity in human HT-29 cells xenografted nude rat at 25 mg/kg, po qd for 2 weeks; assay type: organism-based; design: dose 25 mg/kg, route oral; settings: in vivo, 336 h
[15] = Oral bioavailability in rat at 25 mg/kg; assay type: ADME, organism-based; settings: in vivo
[16] = Intrinsic clearance in mouse liver microsomes at 1 umol/L after 20 mins in presence of NADPH; assay type: ADME, Microsome; settings: read-out: CLH
[17] = target: Serine/threonine-protein kinase Chk1 (Homo sapiens, UniProt O14757); assay: Inhibition of CHK1
Serine/threonine-protein kinase Chk1, sequence (O14757 whole entry): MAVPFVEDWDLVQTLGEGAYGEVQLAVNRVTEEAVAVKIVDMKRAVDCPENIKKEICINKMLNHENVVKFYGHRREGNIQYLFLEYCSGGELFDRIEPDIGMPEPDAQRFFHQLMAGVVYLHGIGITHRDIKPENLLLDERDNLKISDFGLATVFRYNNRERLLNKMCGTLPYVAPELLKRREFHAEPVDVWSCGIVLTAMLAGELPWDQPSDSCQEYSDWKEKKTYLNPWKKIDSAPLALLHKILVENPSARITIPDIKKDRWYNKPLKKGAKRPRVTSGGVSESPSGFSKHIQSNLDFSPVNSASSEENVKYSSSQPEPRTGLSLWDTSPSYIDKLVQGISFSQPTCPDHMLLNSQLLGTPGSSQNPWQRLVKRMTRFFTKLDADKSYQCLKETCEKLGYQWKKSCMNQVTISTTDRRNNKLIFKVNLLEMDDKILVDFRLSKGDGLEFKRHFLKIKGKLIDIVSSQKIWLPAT

[18] = target: Fibroblast growth factor receptor 3 (Homo sapiens, UniProt P22607); assay: Inhibition of FGFR3
[19] = target: RAF proto-oncogene serine/threonine-protein kinase (Homo sapiens, UniProt P04049); assay: Inhibition of c-RAF
[20] = target: Receptor tyrosine-protein kinase erbB-2 (Homo sapiens, UniProt P04626); assay: Inhibition of HER2
[21] = target: Protein kinase C theta type (Homo sapiens, UniProt Q04759); assay: Inhibition of PKCtheta
[22] = target: Mitogen-activated protein kinase kinase kinase 1 (Homo sapiens, UniProt Q13233); assay: Inhibition of MEKK1
Aurora kinase B = Aurora kinase B (Homo sapiens, UniProt Q96GD4); assay: Inhibition of aurora B
[23] = target: Platelet-derived growth factor receptor beta (Homo sapiens, UniProt P09619); assay: Inhibition of PDGFRbeta
[24] = target: Proto-oncogene tyrosine-protein kinase Src (Homo sapiens, UniProt P12931)
Proto-oncogene tyrosine-protein kinase Src, sequence (P12931 2-536 limits assumed): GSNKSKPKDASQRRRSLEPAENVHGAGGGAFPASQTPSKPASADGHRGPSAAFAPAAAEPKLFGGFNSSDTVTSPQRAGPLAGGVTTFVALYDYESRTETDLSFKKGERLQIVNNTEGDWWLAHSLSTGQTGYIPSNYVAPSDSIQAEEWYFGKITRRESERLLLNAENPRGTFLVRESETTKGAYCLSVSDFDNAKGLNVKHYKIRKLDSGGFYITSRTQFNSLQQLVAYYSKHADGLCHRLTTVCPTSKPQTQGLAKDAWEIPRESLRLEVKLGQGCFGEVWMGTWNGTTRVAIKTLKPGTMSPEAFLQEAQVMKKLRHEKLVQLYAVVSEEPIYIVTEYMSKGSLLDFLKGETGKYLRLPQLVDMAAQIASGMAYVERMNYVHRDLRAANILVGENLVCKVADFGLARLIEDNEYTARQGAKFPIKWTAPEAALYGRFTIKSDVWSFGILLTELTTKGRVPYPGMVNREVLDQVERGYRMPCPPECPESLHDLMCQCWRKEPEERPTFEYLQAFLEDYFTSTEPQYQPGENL

[25] = target: Mitogen-activated protein kinase 3 (Homo sapiens, UniProt P27361); assay: Inhibition of ERK1
[26] = target: Platelet-derived growth factor receptor alpha (Homo sapiens, UniProt P16234); assay: Inhibition of PDGFRalpha
[27] = target: Dual specificity mitogen-activated protein kinase kinase 1 (Homo sapiens, UniProt Q02750)
[28] = target: Mast/stem cell growth factor receptor Kit (Homo sapiens, UniProt P10721); assay: Inhibition of c-Kit
Mast/stem cell growth factor receptor Kit, sequence (P10721 whole entry): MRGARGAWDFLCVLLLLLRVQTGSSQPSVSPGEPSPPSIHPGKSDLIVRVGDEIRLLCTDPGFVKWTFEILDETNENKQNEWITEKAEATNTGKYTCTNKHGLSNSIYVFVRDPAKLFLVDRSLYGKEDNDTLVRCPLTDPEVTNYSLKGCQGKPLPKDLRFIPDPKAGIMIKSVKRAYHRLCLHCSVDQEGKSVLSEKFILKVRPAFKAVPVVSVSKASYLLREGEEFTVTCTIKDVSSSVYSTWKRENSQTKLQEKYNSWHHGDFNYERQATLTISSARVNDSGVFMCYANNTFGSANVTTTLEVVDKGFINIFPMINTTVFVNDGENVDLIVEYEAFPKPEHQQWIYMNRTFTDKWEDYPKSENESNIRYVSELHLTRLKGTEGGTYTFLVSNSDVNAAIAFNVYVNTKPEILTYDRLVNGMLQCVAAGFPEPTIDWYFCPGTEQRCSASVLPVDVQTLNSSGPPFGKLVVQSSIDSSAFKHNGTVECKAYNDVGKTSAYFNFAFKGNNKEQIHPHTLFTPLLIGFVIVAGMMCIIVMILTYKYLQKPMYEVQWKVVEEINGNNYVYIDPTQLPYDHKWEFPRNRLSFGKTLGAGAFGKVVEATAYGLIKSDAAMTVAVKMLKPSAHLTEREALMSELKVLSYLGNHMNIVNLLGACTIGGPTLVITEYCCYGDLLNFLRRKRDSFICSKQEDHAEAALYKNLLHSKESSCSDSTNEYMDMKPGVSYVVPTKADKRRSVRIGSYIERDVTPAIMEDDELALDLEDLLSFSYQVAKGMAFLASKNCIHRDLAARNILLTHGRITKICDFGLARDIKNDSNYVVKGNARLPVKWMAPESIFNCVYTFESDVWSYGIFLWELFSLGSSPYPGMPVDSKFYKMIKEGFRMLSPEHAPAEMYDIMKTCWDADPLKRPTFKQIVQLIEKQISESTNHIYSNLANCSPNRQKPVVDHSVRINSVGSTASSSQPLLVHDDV

[29] = target: Inhibitor of nuclear factor kappa-B kinase subunit beta (Homo sapiens, UniProt O14920); assay: Inhibition of IKKbeta
Angiopoietin-1 receptor = Angiopoietin-1 receptor (Homo sapiens, UniProt Q02763); assay: Inhibition of TIE2
[30] = target: Mitogen-activated protein kinase 8 (Homo sapiens, UniProt P45983); assay: Inhibition of JNK1
[31] = target: Cyclin-dependent kinase 1 (Homo sapiens, UniProt P06493); assay: Inhibition of CDK1
Cyclin-dependent kinase 1, sequence (P06493 whole entry): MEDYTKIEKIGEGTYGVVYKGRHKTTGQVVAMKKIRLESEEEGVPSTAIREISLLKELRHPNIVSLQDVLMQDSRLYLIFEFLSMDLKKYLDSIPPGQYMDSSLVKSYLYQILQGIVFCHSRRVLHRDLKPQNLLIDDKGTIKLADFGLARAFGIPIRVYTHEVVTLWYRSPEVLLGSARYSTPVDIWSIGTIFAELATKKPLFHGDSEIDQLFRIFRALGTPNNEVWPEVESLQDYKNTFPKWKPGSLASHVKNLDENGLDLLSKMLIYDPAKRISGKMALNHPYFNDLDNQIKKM

[32] = target: Hepatocyte growth factor receptor (Homo sapiens, UniProt P08581)
[33] = target: Glycogen synthase kinase-3 beta (Homo sapiens, UniProt P49841); assay: Inhibition of GSK3beta
Glycogen synthase kinase-3 beta, sequence (P49841 whole entry): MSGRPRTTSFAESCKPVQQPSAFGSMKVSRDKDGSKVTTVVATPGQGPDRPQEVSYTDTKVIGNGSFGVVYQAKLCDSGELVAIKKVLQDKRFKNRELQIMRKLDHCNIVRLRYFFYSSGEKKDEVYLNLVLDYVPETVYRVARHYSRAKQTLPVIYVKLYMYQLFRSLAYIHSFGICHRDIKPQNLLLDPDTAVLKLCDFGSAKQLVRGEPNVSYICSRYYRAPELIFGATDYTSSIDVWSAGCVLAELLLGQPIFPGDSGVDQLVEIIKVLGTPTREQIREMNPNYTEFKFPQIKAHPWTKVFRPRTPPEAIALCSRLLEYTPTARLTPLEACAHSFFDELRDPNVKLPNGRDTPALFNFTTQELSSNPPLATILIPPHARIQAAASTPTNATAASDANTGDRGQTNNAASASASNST

[34] = target: Cyclin-dependent kinase 2 (Homo sapiens, UniProt P24941); assay: Inhibition of CDK2
Insulin receptor = Insulin receptor (Homo sapiens, UniProt P06213); assay: Inhibition of IR

IC50 [1]: 510 nM
IC50 [2]: 73 nM
IC50 [3]: 88 nM
SMILES: CC(=O)Nc1nc2cnc(Nc3cc(NC(=O)c4cccc(OC(C)(C)C#N)c4)ccc3C)nc2s1

SMILES: CN(c1ccc(F)c(NC(=O)c2cccc(OC(C)(C)C#N)c2Cl)c1)c1ccc2nc(NC(=O)C3CC3)sc2n1 [listing 1 of 2 here]
inhibition (Rattus norvegicus [4]): Active

solubility thermodynamic [5]: 31 µg/mL
SMILES: CN(c1ccc(F)c(NC(=O)c2cccc(OC(C)(C)C#N)c2Cl)c1)c1ccc2nc(NC(=O)C3CC3)sc2n1.Cl

IC50 [1]: 300 nM
microsomal CLint at 1 µM [6]: 56 µL/min/mg
IC50 [2]: 100 nM
IC50 [3]: 150 nM
SMILES: CC(=O)Nc1nc2cnc(Nc3cc(NC(=O)c4cccc(CC(C)(C)C#N)c4)ccc3C)nc2s1

MRT [7]: 5.26 h
Cmax [8]: 660 ng/mL
clearance [9]: 29.2 mL/min/kg
MRT [10]: 3.13 h
Vd [11]: 5.52 L/kg
AUC(0-t) at 24 h [12]: 600 ng·h/mL
AUC(0-t) at 24 h [13]: 5770 ng·h/mL
solubility thermodynamic [5]: 37 µg/mL
bioavailability [15]: 38.4%
SMILES: CN(c1ccc(F)c(NC(=O)c2cccc(OC(C)(C)C#N)c2Cl)c1)c1ccc2nc(NC(=O)C3CC3)sc2n1.O.O=S(=O)(O)c1ccccc1
T/C (HT-29): -70%
Activity (Rattus norvegicus [14]): Non-toxic

IC50 [1]: 340 nM
microsomal CLint at 1 µM [6]: 73 µL/min/mg
IC50 [2]: 91 nM
IC50 [3]: 120 nM
SMILES: CC(=O)Nc1nc2cnc(Nc3cc(NC(=O)c4cccc(C5(C#N)CC5)c4Cl)ccc3C)nc2s1

microsomal CLint at 1 µM [16]: 55 µL/min/mg
microsomal CLint at 1 µM [6]: 45 µL/min/mg
IC50 [3]: 22 nM
SMILES: CC(=O)Nc1nc2ccc(N(C)c3ccc(F)c(NC(=O)c4cccc(OC(C)(C)C#N)c4Cl)c3)nc2s1

solubility thermodynamic [5]: 35 µg/mL
SMILES: CN(c1ccc(F)c(NC(=O)c2cccc(OC(C)(C)C#N)c2Cl)c1)c1ccc2nc(NC(=O)C3CC3)sc2n1.O=S(=O)(O)O

IC50 [1]: 64 nM
IC50 [2]: 15 nM
solubility thermodynamic [5]: 0.91 µg/mL
IC50 [3]: 87 nM
SMILES: CC(C)(C#N)Oc1cccc(C(=O)Nc2cc(Nc3ccc4nc(NC(=O)C5CC5)sc4n3)ccc2F)c1Cl

microsomal CLint at 1 µM [16]: 25 µL/min/mg
microsomal CLint at 1 µM [6]: 22 µL/min/mg
IC50 [3]: 30 nM
SMILES: CC(=O)Nc1nc2ccc(N(C)c3ccc(F)c(NC(=O)c4cccc(OC(C)(C)C#N)c4)c3)nc2s1

IC50 [1]: 410 nM
microsomal CLint at 1 µM [6]: 35 µL/min/mg
IC50 [2]: 51 nM
IC50 [3]: > 500 nM
SMILES: CC(=O)Nc1nc2cnc(Nc3cc(NC(=O)c4cccc(CCC#N)c4)ccc3C)nc2s1

IC50 [17]: > 10000 nM
IC50 [18]: 86 nM
IC50 [19]: 23 nM
microsomal CLint at 1 µM [16]: 32 µL/min/mg
IC50 [20]: 1200 nM
IC50 [21]: > 10000 nM
IC50 [22]: > 10000 nM
IC50 (Aurora kinase B): 4000 nM
microsomal CLint at 1 µM [6]: 25 µL/min/mg
IC50 [23]: 91 nM
IC50 [24]: 130 nM
IC50 [25]: > 10000 nM
IC50 [26]: 43 nM
IC50 [27]: 1000 nM
IC50 [28]: 430 nM
IC50 [29]: 8100 nM
IC50 (Angiopoietin-1 receptor): 840 nM
IC50 [30]: > 10000 nM
IC50 [31]: 3700 nM
solubility thermodynamic [5]: 18 µg/mL
IC50 [32]: > 10000 nM
IC50 [33]: > 10000 nM
IC50 [34]: > 10000 nM
IC50 (Insulin receptor): > 10000 nM
SMILES: CN(c1ccc(F)c(NC(=O)c2cccc(OC(C)(C)C#N)c2Cl)c1)c1ccc2nc(NC(=O)C3CC3)sc2n1 [listing 2 of 2 here]
